Measured values taken from patent publication US8697692B2, “Pyrrolo [3,2-c] pyridine-4-one 2-indolinone protein kinase inhibitors” (Shanghai Hengrui Pharmaceutical Co., Ltd., priority 2006, dated 2014).

What was measured:
[1] = biological target: T1, recombinant human VEGF-R2 (Homo sapiens, UniProt P35968); assay: VEGF-R2 Kinase Assay (ELISA); assay type: biochemical; settings: 10 μM ATP, 25° C. 30 minutes, read-out: IC50 (VEGFR/bio)
T1 construct: purchased Cell signaling technology #7787
Protocol: This assay is used to measure the in vitro kinase activity of recombinant human VEGF-R2 in an ELISA assay.
c. Stop Buffer: 50 mM EDTA, pH 8.0.
d. DELFIA® Europium-labeled Anti-mouse IgG (PerkinElmer Life Sciences #AD0124).
f. DELFIA® Streptavidin coated, 96-well, yellow plate (PerkinElmer Life Sciences #AAAND-0005).
(§1) k. HTScan™ Tyrosine Kinase Buffer (4×)
(§2) The following protocol was used:
(§3) 1. Dilute test compound with DMSO to the desired final assay concentration.
2. Dilute 6 μM substrate peptide (Tyr87) 1:1 with dH2O, add 15 μl to every assay.
3. Immediately transfer VEGF-R2 enzyme from −80° C. to ice. Allow enzyme to thaw on ice.
4. Take 2.2 μg VEGF-R2 enzyme to the enzyme tube.
(§4) 6. Transfer 0.75 ml of DTT/Kinase buffer to each enzyme tube to make 4× reaction cocktail. Add 7.5 μl 4× reaction cocktail to every assay.
7. Add 2 μl ATP (10 mM) to 498 μl dH2O, take 7.5 μl for every assay. Final Assay Conditions for a 30 μl Reaction
Incubate reaction tube at 25° C. for 30 minutes. 9. Add 30 μl/assay stop buffer (50 mM EDTA, pH 8.0) to stop the reaction. 10. Transfer 25 μl of each reaction and 75 μl dH2O/well to a 96-well streptavidin coated plate and incubate, with shaking at room temperature for 60 minutes. 11. Wash three times with 200 μl/well PBS-T buffer. Pat plate on paper towel to remove excess liquid. 12. […] Add 100 μl diluted primary antibody to each well. 13. Incubate, with shaking at room temperature for 60 minutes. 14. Wash as described above in step 11. 15. Dilute Europium labeled anti-mouse IgG 1:500 in PBS-T buffer with 1% BSA. Add 100 μl diluted antibody to each well. 16. Incubate, with shaking at room temperature for 30 minutes. 17. Wash five times with 200 μl/well PBS-T buffer. Pat plate on paper towel to remove excess liquid. 18. Add 100 μl/well DELFIA® Enhancement Solution. 19. Incubate, with shaking at room temperature for 5 minutes. 20. Detect 615 nm fluorescence emission with appropriate Time-Resolved Plate Reader.
(§5) X=the fluorescence value of the well contained test compound
(§6) The IC50 value can be derived from the IRs of compounds at different concentration gradients.

EGFR kinase = biological target: T2, EGFR kinase (Homo sapiens, UniProt P00533); assay: EGFR Kinase Assay; assay type: biochemical; settings: 20 μM ATP, 25° C. 45 minutes
T2 construct: purchased Cell signaling technology #7908
T2 sequence (P00533 25-1210): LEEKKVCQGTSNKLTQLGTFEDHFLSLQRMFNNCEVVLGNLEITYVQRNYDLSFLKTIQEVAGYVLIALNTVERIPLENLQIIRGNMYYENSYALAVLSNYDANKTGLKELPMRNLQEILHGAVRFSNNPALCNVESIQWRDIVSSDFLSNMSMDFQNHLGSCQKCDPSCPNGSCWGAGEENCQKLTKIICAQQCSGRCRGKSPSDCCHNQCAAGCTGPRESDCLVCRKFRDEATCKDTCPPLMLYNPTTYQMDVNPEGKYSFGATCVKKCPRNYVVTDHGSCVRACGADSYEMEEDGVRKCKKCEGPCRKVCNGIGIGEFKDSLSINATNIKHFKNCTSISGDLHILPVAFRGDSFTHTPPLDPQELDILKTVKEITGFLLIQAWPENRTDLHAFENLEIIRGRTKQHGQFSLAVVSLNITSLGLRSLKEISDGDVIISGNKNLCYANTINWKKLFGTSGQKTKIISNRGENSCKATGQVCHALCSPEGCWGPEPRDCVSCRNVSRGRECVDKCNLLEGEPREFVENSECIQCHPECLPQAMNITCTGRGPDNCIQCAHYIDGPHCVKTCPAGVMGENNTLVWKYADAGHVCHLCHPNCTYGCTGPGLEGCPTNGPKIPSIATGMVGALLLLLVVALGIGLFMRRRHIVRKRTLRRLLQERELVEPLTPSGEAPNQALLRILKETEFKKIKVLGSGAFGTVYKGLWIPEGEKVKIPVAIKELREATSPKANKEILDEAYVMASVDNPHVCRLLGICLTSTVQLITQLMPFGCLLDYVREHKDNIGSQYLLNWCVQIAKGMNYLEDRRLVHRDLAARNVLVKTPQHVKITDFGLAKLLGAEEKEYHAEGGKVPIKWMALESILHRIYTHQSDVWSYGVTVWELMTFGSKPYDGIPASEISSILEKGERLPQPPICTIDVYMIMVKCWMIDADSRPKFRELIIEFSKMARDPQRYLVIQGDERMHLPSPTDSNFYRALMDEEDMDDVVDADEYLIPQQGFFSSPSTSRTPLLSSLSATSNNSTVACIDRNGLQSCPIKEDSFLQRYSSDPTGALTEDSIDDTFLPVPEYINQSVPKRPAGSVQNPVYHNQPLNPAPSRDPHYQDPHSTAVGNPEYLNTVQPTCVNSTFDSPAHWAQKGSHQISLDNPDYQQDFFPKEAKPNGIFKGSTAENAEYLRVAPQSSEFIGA
Protocol: EGFR kinase activity in vitro was measured as described below:
a. Wash Buffer (PBS-T Buffer): 1×PBS (137 mM NaCl, 2.7 mM KCl, 4.3 mM Na2HPO4, 1.4 mM KH2PO4, adjust the pH to 7.2) and 0.05% Tween-20.
b. 1% Bovine Serum Albumin (BSA, Calbiochem #136593) in PBS-T.
c. Stop Buffer: 50 mM EDTA, pH 8.0
d. DELFIA® Europium-labeled Anti-mouse IgG (PerkinElmer Life Sciences #AD0124)
e. DELFIA® Enhancement Solution (PerkinElmer Life Sciences #1244-105)
f. DELFIA® Streptavidin coated, 96-well, yellow plate (PerkinElmer Life Sciences #AAAND-0005)
g. EGFR kinase (supplied in 50 mM Tris-HCl (pH 8.0), 100 mM NaCl, 5 mM DTT, 15 mM reduced glutathione and 20% glycerol. Cell signaling technology #7908).
h. 10 mM ATP solution (Cell signaling technology #9804).
i. PTP1B (Tyr66) Biotinylated Peptide (Cell signaling technology #1325).
j. Phospho-Tyrosine Mouse mAb (P-Tyr-100) (Cell signaling technology #9411).
as §1
(Cell signaling technology #9805).
l. 1.25 M DTT (1000×) (Cell signaling technology).
as §2, §3
2. Dilute 6 μM substrate peptide (Tyr66) 1:1 with dH2O, add 15 μl to every assay.
3. Immediately transfer EGFR enzyme from −80° C. to ice. Allow enzyme to thaw on ice.
4. Take 3 μg EGFR enzyme to the enzyme tube.
5. Add 10 μl of DTT (1.25 M) to 2.5 ml of 4×HTScan™ Tyrosine Kinase Buffer (240 mM HEPES pH 7.5, 20 mM MgCl2, 20 mM MnCl2, 12 μM Na3VO4) to make DTT/Kinase buffer.
as §4
7. Add 4 μl ATP (10 mM) to 496 μl dH2O, take 7.5 μl for every assay.
Final Assay Conditions for a 30 μl Reaction
Incubate reaction tube at 25° C. for 45 minutes. 9. Add 30 μl/assay stop buffer (50 mM EDTA, pH 8.0) to stop the reaction. 10. Transfer 25 μl of each reaction and 75 μl dH2O/well to a 96-well streptavidin coated plate and incubate, with shaking at room temperature for 60 minutes. 11. Wash three times with 200 μl/well PBS-T buffer. Pat plate on paper towel to remove excess liquid. 12. Dilute primary antibody, Phospho-Tyrosine mAb (P-Tyr-100), 1:1000 in PBS-T buffer with 1% BSA. Add 100 μl diluted primary antibody to each well. 13. Incubate, with shaking at room temperature for 60 minutes. 14. Wash as described above in step 11. 15. Dilute Europium labeled anti-mouse IgG 1:500 in PBS-T buffer with 1% BSA. Add 100 μl diluted antibody to each well. 16. Incubate, with shaking at room temperature for 30 minutes. 17. Wash five times with 200 μl/well PBS-T buffer. Pat plate on paper towel to remove excess liquid. 18. Add 100 μl/well DELFIA® Enhancement Solution. 19. Incubate, with shaking at room temperature for 5 minutes. 20. Detect 615 nm fluorescence emission with appropriate Time-Resolved Plate Reader.
Calculate the inhibition rate: IR (%)=100−100*(X−B)/(N−B)
as §5, §6

T1 sequence (P35968 20-1356): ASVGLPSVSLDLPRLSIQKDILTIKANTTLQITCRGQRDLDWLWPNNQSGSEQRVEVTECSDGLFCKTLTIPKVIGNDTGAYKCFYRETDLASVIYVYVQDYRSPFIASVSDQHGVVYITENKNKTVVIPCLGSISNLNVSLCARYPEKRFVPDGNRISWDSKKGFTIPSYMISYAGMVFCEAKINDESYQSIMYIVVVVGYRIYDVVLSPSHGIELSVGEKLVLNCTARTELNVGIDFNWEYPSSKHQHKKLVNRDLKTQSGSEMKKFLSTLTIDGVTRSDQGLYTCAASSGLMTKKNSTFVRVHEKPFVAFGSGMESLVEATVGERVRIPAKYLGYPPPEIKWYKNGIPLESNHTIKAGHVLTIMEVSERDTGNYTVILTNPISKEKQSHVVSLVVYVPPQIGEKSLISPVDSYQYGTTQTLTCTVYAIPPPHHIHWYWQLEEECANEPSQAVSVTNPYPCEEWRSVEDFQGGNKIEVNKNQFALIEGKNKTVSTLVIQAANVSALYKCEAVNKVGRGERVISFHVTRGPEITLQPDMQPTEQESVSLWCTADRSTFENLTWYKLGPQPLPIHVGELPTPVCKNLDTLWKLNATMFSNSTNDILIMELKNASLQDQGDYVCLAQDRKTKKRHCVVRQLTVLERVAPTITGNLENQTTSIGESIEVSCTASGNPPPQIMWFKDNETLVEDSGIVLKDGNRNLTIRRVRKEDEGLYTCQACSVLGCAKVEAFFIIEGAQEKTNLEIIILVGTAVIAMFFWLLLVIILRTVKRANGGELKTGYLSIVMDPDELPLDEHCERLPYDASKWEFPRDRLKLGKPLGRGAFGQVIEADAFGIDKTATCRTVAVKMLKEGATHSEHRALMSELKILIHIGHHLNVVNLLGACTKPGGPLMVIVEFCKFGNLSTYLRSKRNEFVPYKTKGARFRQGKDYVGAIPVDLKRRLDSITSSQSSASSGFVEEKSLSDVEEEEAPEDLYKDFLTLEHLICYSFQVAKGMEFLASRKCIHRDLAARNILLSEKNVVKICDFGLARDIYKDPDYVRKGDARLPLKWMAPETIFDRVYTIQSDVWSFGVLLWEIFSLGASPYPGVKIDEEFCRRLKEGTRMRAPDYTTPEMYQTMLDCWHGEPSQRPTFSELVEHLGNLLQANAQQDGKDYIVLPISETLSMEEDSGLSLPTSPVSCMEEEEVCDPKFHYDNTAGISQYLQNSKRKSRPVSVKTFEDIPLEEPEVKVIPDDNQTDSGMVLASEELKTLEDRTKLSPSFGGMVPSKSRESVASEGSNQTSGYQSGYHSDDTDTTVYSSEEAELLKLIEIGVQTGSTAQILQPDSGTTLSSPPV

IC50 [1] [nM]	IC50 (EGFR kinase) [nM]	Structure (SMILES)
1890	60	CCN(CC)CCN1CCc2[nH]c(/C=C3\C(=O)Nc4ncnc(Nc5ccc(F)c(Cl)c5)c43)c(C)c2C1=O [Example 12, 4-(3-Chlor O-4-fluoro-phenylamino)-5-[5-(2-diethylamino-ethyl)-3-methyl-4-oxo-4,5,6,7-tetrahydro-1H-pyrrolo[3,2-c]pyridine-2-ylmethylene]-5,7-dihydro-pyrrolo[2,3-d]pyrimidin-6-one]
44	–	Cc1c(/C=C2\C(=O)Nc3ccc(Cl)cc32)[nH]c2c1C(=O)N(CCN1CCOCC1)CC2 [Example 16, 2-(5-Chloro-2-oxo-1,2-dihydro-indol-3-ylidenemethyl)-3-methyl-5-(2-morpholin-4-yl-ethyl)-1,5,6,7-tetrahydro-pyrrolo[3,2-c]pyridin-4-one]
680	310	Cc1c(/C=C2\C(=O)Nc3ncnc(Nc4ccc(F)c(Cl)c4)c32)[nH]c2c1C(=O)N(CCN1CCOCC1)CC2 [Example 24, 4-(3-Chloro-4-fluoro-phenylamino)-5-[3-methyl-5-(2-morpholin-4-yl-ethyl)-4-oxo-4,5,6,7-tetrahydro-1H-pyrrolo[3,2-c]pyridine-2-ylmethylenene]-5,7-dihydro-pyrrolo[2,3-d]pyrimidin-6-one]
94	4950	CCN(CC)CCN1CCc2[nH]c(/C=C3\C(=O)Nc4cccc(Br)c43)c(C)c2C1=O [Example 30, 2-(4-Bromo-2-oxo-1,2-dihydro-indol-3-ylidenemethyl)-5-(2-diethylamino-ethyl)-3-methyl-1,5,6,7-tetrahydro-pyrrolo[3,2-c]pyridin-4-one]
35	210	CCN(CC)CCN1CCc2[nH]c(/C=C3\C(=O)Nc4cccc(C5CCNCC5)c43)c(C)c2C1=O [Example 31, 5-(2-Diethylamino-ethyl)-3-methyl-2-(2-oxo-4-piperidin-4-yl-1,2-dihydro-indol-3-ylidenemethyl)-1,5,6,7-tetrahydro-pyrrolo[3,2-c]pyridin-4-one]
11	940	CCN(CC)CCN1CCc2[nH]c(/C=C3\C(=O)Nc4cccc(-c5ccc(Cl)cc5F)c43)c(C)c2C1=O [Example 34, 2-[4-(4-Chloro-2-fluoro-phenyl)-2-oxo-1,2-dihydro-indol-3-ylidenemethyl]-5-(2-diethylamino-ethyl)-3-methyl-1,5,6,7-tetrahydro-pyrrolo[3,2-c]pyridin-4-one]
–	3320	CCN(CC)CCN1CCc2[nH]c(/C=C3\C(=O)Nc4ccc(OC)cc43)c(C)c2C1=O [Example 35, 5-(2-Diethylamino-ethyl)-2-(5-methoxy-2-oxo-1,2-dihydro-indol-3-ylidenemethyl)-3-methyl-1,5,6,7-tetrahydro-pyrrolo[3,2-c]pyridin-4-one]
10	180	CCN(CC)CCN1CCc2[nH]c(/C=C3\C(=O)Nc4cccc(-c5cccc(Cl)c5F)c43)c(C)c2C1=O [Example 36, 2-[4-(3-Chloro-2-fluoro-phenyl)-2-oxo-1,2-dihydro-indol-3-ylidenemethyl]-5-(2-diethylamino-ethyl)-3-methyl-1,5,6,7-tetrahydro-pyrrolo[3,2-c]pyridin-4-one]
70	2890	CCN(CC)CCN1CCc2[nH]c(/C=C3\C(=O)Nc4cccc(CCO)c43)c(C)c2C1=O [Example 37, 5-(2-Diethylamino-ethyl)-2-[4-(2-hydroxy-ethyl)-2-oxo-1,2-dihydro-indol-3-ylidenemethyl]-3-methyl-1,5,6,7-tetrahydro-pyrrolo[3,2-c]pyridin-4-one]
7.1	340	CCN(CC)CCN1CCc2[nH]c(/C=C3\C(=O)Nc4cccc(-c5cccc(F)c5F)c43)c(C)c2C1=O [Example 39, 5-(2-diethylamino-ethyl)-2-[4-(2,3-difluoro-phenyl)-2-oxo-1,2-dihydro-indol-3-ylidenemethyl]-3-methyl-1,5,6,7-tetrahydro-pyrrolo[3,2-c]pyridin-4-one]
47	760	Cc1c(/C=C2\C(=O)Nc3ccc(Br)cc32)[nH]c2c1C(=O)N(CCN1CCCC1)CC2 [Example 40, 2-(5-Bromo-2-oxo-1,2-dihydro-indol-3-ylidenemethyl)-3-methyl-5-(2-pyrrolidin-1-yl-ethyl)-1,5,6,7-tetrahydro-pyrrolo[3,2-c]pyridin-4-one]
–	510	Cc1c(/C=C2\C(=O)Nc3ncc(Br)cc32)[nH]c2c1C(=O)N(CCN1CCOCC1)CC2 [Example 50, 2-(5-Bromo-2-oxo-1,2-dihydro-pyrrolo[2,3-b]pyridin-3-ylidenemethyl)-3-methyl-5-(2-morpholin-4-yl-ethyl)-1,5,6,7-tetrahydro-pyrrolo[3,2-c]pyridin-4-one]
1270	–	Cc1c(/C=C2\C(=O)Nc3cccc(C4CCNCC4)c32)[nH]c2c1C(=O)N(CCN1CCOCC1)CC2 [Example 52, 3-Methyl-5-(2-morpholin-4-yl-ethyl)-2-(2-oxo-4-piperidin-4-yl-1,2-dihydro-indol-3-ylidenemethyl)-1,5,6,7-tetrahydro-pyrrolo[3,2-c]pyridin-4-one]
